These results are taken from PMC6530537, “Efficient development of stable and highly functionalised peptides targeting the CK2α/CK2β protein–protein interaction” (Chemical Science, 2019).

Substitutions are numbered along the chain they refer to. Where a SMILES comes first, the peptide text is derived from it. Bridges are numbered along the chain shown (N, C = ends). [ ]: non-standard residue; d: D form. Dap(N3) = [N-]=[N+]=NC[C@H](N)C(=O)O

Series [1] deals with HCT116 cells. Description: cells. It counts as cell-based, human. The note with it: Homo sapiens, HCT-116, 96 h; HCT116 cells, 4 day incubation, SYTOX green imaging, average of at least four independent repeats; read-out: GI50. On the procedure:
(§1) page 47: 1.5. Biological experimental 1.5.1. […] The experiment was performed in duplicates. 1.5.2. […] 1.5.3. […] 46

In series [2] the test system is U2OS cells. Description: cells. The format is cell-based, human. Conditions: Homo sapiens, 96 h; U2OS cells, 4 day incubation, SYTOX green imaging, average of at least four independent repeats; read-out: GI50. As for the experimental part: as §1
The target of series [3] is T1, CK2α (Homo sapiens, UniProt P68400).
T1 construct: CK2α_WT was used (residues 2-329); His6 (N, cleaved yes); made in house; host or cells: Escherichia coli BL21(DE3)
T1 sequence (P68400 2-329): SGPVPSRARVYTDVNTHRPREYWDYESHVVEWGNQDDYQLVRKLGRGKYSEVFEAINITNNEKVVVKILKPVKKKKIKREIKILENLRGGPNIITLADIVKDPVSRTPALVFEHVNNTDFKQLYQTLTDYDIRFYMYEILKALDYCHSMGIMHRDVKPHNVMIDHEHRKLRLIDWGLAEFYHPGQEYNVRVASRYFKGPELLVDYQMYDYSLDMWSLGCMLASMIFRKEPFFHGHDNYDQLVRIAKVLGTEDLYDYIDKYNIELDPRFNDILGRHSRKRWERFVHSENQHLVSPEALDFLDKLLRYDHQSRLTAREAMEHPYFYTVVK
Description: Fluorescence polarisation assay: displacement of fluorescein-labelled CK2β-derived probe from CK2α. The format is binding. The note with it: FP, 15 µM test compound, 450 nM CK2α, 7.4 nM CK2β_pep probe, 350 mM NaCl, 20 mM Mes pH 6.5, 30 min incubation, triplicates; approximate; read-out: % inhibition at 15 μM (CK2β-like probe displacement). The text has this: Molecular modelling identified Cys2 and Gly11 of Pc,[34] corresponding to P185 and P194 of CK2β, as suitable residues to staple: they make negligible contributions to the binding and are positioned at a suitable distance from each other to accommodate a 2C-CuAAC staple (ESI, Fig. S1 ^†). To cyclise the peptide, azido amino acids bearing one-carbon-atom side chains (Fmoc-Aza-OH) were used in combination with aliphatic linkers of different lengths as proposed by molecular modelling (Fig. 2 and ESI Table S1 ^†). The ability of the synthesised macrocycles to disrupt the α/β PPI of CK2 was then tested in a preliminary fluorescent polarisation assay (FP) (Fig. 2). […]
(§2) lysed using a high-pressure homogeniser.
(§3) The soluble supernatant was applied on a […]
(§4) mM NaCl, 1mM DTT, 1mM EDTA, pH 8.5). 100µL of the precision protease was loaded onto the […]
Pure protein was concentrated to 15 mg/mL and flash frozen in liquid N2.
1.4.2. Fluorescent Polarisation anisotropy
Approximate % inhibition of
The experiment was performed in triplicates.
(§5) 1.4.3. Isothermal Calorimetry Titration
(§6) 1.4.3.1. Direct binding assay
(§7) DMSO) and concentrated to 20-50 μM. Compounds in 100× stock solutions were diluted into the […]
(§8) Control titrations were performed, and the […]
In general terms: In fluorescence polarisation assays a small probe gives low polarisation when free and higher when bound to something large.

The conditions of series [4]: pH 6.5.
The target of series [5] is T2, CK2α (Homo sapiens, UniProt P68400, K74A/K75A/K76A/R21S).
T2 construct: CK2α_KA (residues 2 -329) contained four; His6 (N, cleaved yes); made in house; host or cells: Escherichia coli BL21(DE3)
T2 sequence (P68400 2-329 R21S/K74A/K75A/K76A): T1 sequence (P68400 2-329) with R20S, K73A, K74A, K75A
Description: Isothermal titration calorimetry, direct binding to CK2α. Conditions: ITC, 25°C, CK2α_KA, Tris 200 mM, NaCl 300 mM, 10% DMSO, single site binding model. On the procedure: as §2, §3, §4
Pure protein was concentrated to 15 mg/mL and flash frozen in liquid N2. […]
as §5, §6, §7, §8
A general note: Isothermal titration calorimetry measures the heat released or taken up as one component is titrated into another.

For series [6], the target named is T3, CK2α/CK2β interaction (Homo sapiens, UniProt P68400).
T3 construct: CK2α_WT was used (residues 2-329); His6 (N, cleaved yes); made in house; host or cells: Escherichia coli BL21(DE3)
T3 sequence (P68400 2-329): T1 sequence (P68400 2-329)
Description: ITC competition assay: CK2β binding to CK2α alone and in the presence of peptide. The note with it: 25°C. As for the experimental part:
We then wanted to investigate whether the peptides would be able to inhibit the binding of the β subunit to the α subunit. To this end, the binding affinity of the regulatory β subunit for the catalytic domain was determined via ITC (Kd 9 nM). This was then repeated in the presence of 100 μM P1-C4 and P2-C4 (ESI, Table S4 ^†). […] As one of the key roles of CK2β is to recruit substrates to the kinase, the effect of PPI inhibition on substrate phosphorylation was studied using CK2β dependent and independent substrates. […] It should be noted that the kinase assay was performed using the pre-formed CK2α/β complex as the ability of CK2α to phosphorylate eIF2β requires the presence of the CK2β subunit.
1.4.3.2. Competition assay […]
concentrated to 4-6 μM. CK2β (9.3 mg/mL, 20 mM Tris pH 8.5, 500 mM NaCl) was diluted in Tris buffer (200 mM, NaCl, 300 mM, 10% DMSO) and concentrated to 40 μM. In a typical experiment, […]
performed at 150 second intervals. The syringe was loaded with CK2β and rotated at 750 rpm. The same experiment was repeated in the presence of the peptide s: compounds at 1 mM in DMSO were added to the solutions of CK2α and CK2β (prepared as described above) to a final concentration of […]
binding model using Origin software. […]
(CK2β-RAD) 200s, baseline 120s (assay buffer), control loading 200s (RAD), baseline 150s (assay buffer), ligand binding (association) 400s (CK2α K74A and CAM7117) and ligand dissociation 600s (assay buffer), followed by regeneration and next cycles. […]
GraphPad. The results are the average of 4 repeats and error shown as SEM.
Figure S10- Sensorgrams of the BLI competition experiments to assess the ability of P2-C4 to […] the CK2α/CK2β-RAD complex. a) Concentration of peptide ranging from 10 to 0.025 μM and 0 μM. b) Concentration of peptide ranging from 10 to 5 nM and 0 nM.
(1 picture or pasted object on this page, not shown here)

In the case of `O=C(O)c1ccc2c(c1)nc(Nc1cccc(Cl)c1)c1ccncc12` [CX4945, reference compound], the 50% growth inhibitory concentration (GI50) (commonly the concentration at which growth is held to half of that of the control) amounted to 14 ± 2 µM in series [1] and 7 ± 1 µM in series [2].

Regarding `CC[C@H](C)[C@@H]1NC(=O)[C@H](CCCCN)NC(=O)[C@H](Cc2ccccc2)NC(=O)CNC(=O)[C@H](Cc2ccc(O)cc2)NC(=O)[C@H](CC(C)C)NC(=O)[C@H](CCCNC(=N)N)NC(=O)[C@@H](NC(C)=O)Cn2cc(nn2)CCc2cn(nn2)C[C@@H](C(N)=O)NC(=O)[C@H](Cc2c[nH]cn2)NC1=O` [P0-C1], the inhibition (usually how much of the control response was suppressed) at 15 µM in series [3] was 0.6 ± 0.5%. With `CC[C@H](C)[C@@H]1NC(=O)[C@H](CCCCN)NC(=O)[C@H](Cc2ccccc2)NC(=O)CNC(=O)[C@H](Cc2ccc(O)cc2)NC(=O)[C@H](CC(C)C)NC(=O)[C@H](CCCNC(=N)N)NC(=O)[C@@H](NC(=O)CNC(C)=O)Cn2cc(nn2)Cc2cn(nn2)C[C@@H](C(=O)NCC(=O)NCC(N)=O)NC(=O)[C@H](Cc2c[nH]cn2)NC1=O` [P1-C3], the “Solubility under the assay conditions” value in series [4] was “insoluble”. With `CC[C@H](C)[C@@H]1NC(=O)[C@H](CCCCN)NC(=O)[C@H](Cc2ccccc2)NC(=O)CNC(=O)[C@H](Cc2ccc(O)cc2)NC(=O)[C@H](CC(C)C)NC(=O)[C@H](CCCNC(=N)N)NC(=O)[C@@H](NC(=O)CNC(C)=O)Cn2cc(nn2)-c2cc(C(=O)O)cc(c2)-c2cn(nn2)C[C@@H](C(=O)NCC(=O)NCC(N)=O)NC(=O)[C@H](Cc2c[nH]cn2)NC1=O` [P1-C4], the inhibition at 15 µM in series [3] worked out at 93 ± 1%. For the same compound, binding in series [5] was put at a Kd of 460 nM. In addition, in series [6] (100 μM peptide, preliminary assay), the “Binding of CK2β to CK2α in the presence of peptide” value is recorded as “no binding of CK2β to CK2α was detected”. In the case of `CC(=O)NCC(=O)N[C@@H](CN=[N+]=[N-])C(=O)N[C@@H](CCCNC(=N)N)C(=O)N[C@@H](CC(C)C)C(=O)N[C@@H](Cc1ccc(O)cc1)C(=O)NCC(=O)N[C@@H](Cc1ccccc1)C(=O)N[C@@H](CCCCN)C(=O)N[C@@H](Cc1c[nH]c2ccccc12)C(=O)N[C@@H](Cc1c[nH]cn1)C(=O)N[C@@H](CN=[N+]=[N-])C(=O)NCC(=O)NCC(N)=O` [P2] (Ac-G[Dap(N3)]RLYGFKWH[Dap(N3)]GG-NH2), binding in series [5] was put at a Kd of 44000 nM. The same measure, in the same setting: as for `CC[C@H](C)[C@@H]1NC(=O)[C@H](CCCCN)NC(=O)[C@H](Cc2ccccc2)NC(=O)CNC(=O)[C@H](Cc2ccc(O)cc2)NC(=O)[C@H](CC(C)C)NC(=O)[C@H](CCCNC(=N)N)NC(=O)[C@@H](NC(=O)CNC(C)=O)CSSC[C@@H](C(=O)NCC(N)=O)NC(=O)CNC(=O)[C@H](Cc2c[nH]cn2)NC1=O` [Pc, reference compound] (Ac-GCRLYGFKIHGCG-NH2; disulfide 2-12), the figure is 1000 nM. Take “CK2β: regulatory β subunit of CK2, recombinant construct (1-198)”: in series [6] (CK2β in the syringe, CK2α in the cell, no peptide, read-out: Kd of the regulatory β subunit for the catalytic domain CK2α), the equilibrium dissociation constant (Kd) (as a rule, a measure of binding affinity in units of concentration) is 9 nM. “GXC2RLYGFKIHXC2GG (sidechain bridge or staple) [P1-C2]”: in series [4], the “Solubility under the assay conditions” value is on record as “insoluble”.
